# Laboratory results from patent publication US7241745B2, “Pyridyl alkene and pyridyl alkine acid amides as cytostatics and immunosupressives” (Astellas Pharma GmbH, priority 1996, dated 2007).
# How the values were obtained:
# [1] = test system: freshly isolated lymphocytes from the spleen of a Swiss mouse; assay: Immunosuppressing activity: vitality of freshly isolated spleen lymphocytes by flow-through cytometry after 2 days; format: cell-based; conditions: Lymphocyte, 48 h, 2 days incubation, flow-through cytometer, read-out: IC50 (percentage amount of vital cells)
# Description: Many anti-tumor agents have not only a cytotoxic effect on tumor cells, but also on the blood cell system. This leads to a weakening of the immune defense, which can, in turn, be specifically employed to suppress the rejection reaction after an organ transplantation for example. Therefore, a use of the main compounds, optionally in combination with other compounds effective for these indications is suitable in diseases such as psoriasis or autoimmune diseases. In order to test the possibility for a therapeutic use in illnesses of this type, the substance activity was tested on freshly isolated lymphocytes as follows:
# The spleen of a Swiss mouse served as a lymphocyte source. The lymphocyte population was isolated from the spleen cell suspension over a ficoll gradient and taken up in IMEM-ZO culture medium with 0,1% dextran 70,000 and 2% fetal calf serum. […] Subsequently, 10,000 cells per each sample were measured on a flow-through cytometer and the percentage amount of vital cells in the population was determined. By means of the dose-response curves, IC50-values were calculated which were also employed in the following Tables for the characterization of the individual substances: […]
# HepG2 cells = assay: Growth inhibition of HepG2 cells, sulforhodamin-B protein determination after six days of incubation; format: cell-based; conditions: Homo sapiens, 144 h, six days of substance incubation, sulforhodamin-B-method, read-out: IC50-value (concentration in which the cell growth was inhibited by 50%)
# Protocol: The tumor growth inhibiting activity of the substances was determined on human tumor cells in standardized in vitro test systems. In the screening tests, the substances gave IC50-values in a concentration range of 0.1 nM to 10 μM.
# HepG2 cells plated at a 20,000 cell/ml in 12-well plastic dishes. Cultivation occured in Richters IMEM-ZO nutrient medium with 5% fetal calf serum (FCS) in a tissue culture incubator with a gas mixture of 5% CO2 and 95% air at a temperature of 37° C. One day after plating, the culture medium was aspirated from the cells and replaced by fresh medium which contained the respective concentrations of the test substances. For the individual concentrations and the controls without test substances, three-fold batches were done for each. Three days after the beginning of treatment, the medium was again renewed with the test compounds. After six days of substance incubation, the test was ended and the protein amount in the individual wells was determined with the sulforhodamin-B-method (according to P. Skehan et al.: New Colorimetric Cytotoxicity Assay for Anticancer-Drug Screening. J. Natl. Cancer Inst. 82: 1107–1112, 1990). The IC50-values (defined as that concentration in which the cell growth was inhibited by 50%) was taken from the dose-response curves and given as a comparative measurement for the activity of the test compounds.
melting point,IC50 [1],IC50 (HepG2 cells),SMILES
164 to 166 °C,–,–,"O=C(C=CC=Cc1cccnc1)NCCCCC1CCN(C(c2ccccc2)c2ccccc2)CC1 [compound 70, N-[4-(1-diphenylmethyl-piperidin-4-yl)-butyl]-5-(pyridin-3-yl)-2,4-pentadienoic acid amide]"
89 to 91 °C,–,–,"O=C(C=Cc1cccnc1)NCCCCC1CCN(C2c3ccccc3CSc3ccccc32)CC1 (stereo not shown) [compound 136, N-{4-[1-(6,11-dihydro-dibenzo [b,e]thiepin-11-yl)-piperidin-4-yl]-butyl}-3-(pyridin-3-yl)-acrylamide]"
161 °C,–,–,"O=C(C=Cc1cccnc1)NCCCCC1CCN(C(=O)C(c2ccccc2)c2ccccc2)CC1 [compound 150, N-[4-(1-diphenylacetyl-piperidin-4-yl)-butyl]-3-(pyridin-3-yl)-acrylamide]"
–,3 nM,0.5 nM,"O=C(C=Cc1cccnc1)NCCCCC1CCN(C(=O)c2ccccc2)CC1 [compound 159, N-[4-(1-benzoylpiperidin-4-yl)-butyl]-3-(pyridin-3-yl)-acrylamide]"
198 to 200 °C,–,–,"O=C(C=Cc1cccnc1)NCCCCC1CCN(C(=O)Nc2cccc3ccccc23)CC1 [compound 195, N-{4-[1-(1-naphthylaminocarbonyl)-piperidin-4-yl]-butyl}-3-(pyridin-3-yl)-acrylamide]"
85 to 87 °C,–,–,"O=C(C=Cc1cccnc1)NCCCCC1CCN(S(=O)(=O)c2ccc3ccccc3c2)CC1 [compound 219, N-{4-[1-(2-naphthyl-sulfonyl)-piperidin-4-yl]-butyl}-3-(pyridin-3-yl)-acrylamide]"
